The record followed here is ChEMBL document CHEMBL3120147, “Synthesis and in vitro urease inhibitory activity of N,N'-disubstituted thioureas” (Eur J Med Chem, 2014).

Each structure is given as a SMILES string.

In general, IC50 refers to the concentration needed to halve the response being measured. Usually Ki stands for the dissociation constant of the complex between target and ligand, obtained from inhibition or displacement.

Test [1] deals with T1, Urease (Canavalia ensiformis, UniProt P07374). Kind of test: Inhibition of jack bean urease using urea as substrate assessed as ammonia production after 15 mins by indophenol method.
Test [2] concerns the target T1, Urease. Description: (§1) Competitive inhibition of jack bean urease using urea as substrate assessed as ammonia production after 15 mins by Lineweaver-Burk/Dixon plot analysis.
For test [3], the target named is Urease (Canavalia ensiformis) (UniProt P07374). Described as §1.
Test [4] has as its target T1, Urease. Kind of test: (§2) Mixed-type inhibition of jack bean urease using urea as substrate assessed as ammonia production after 15 mins by Lineweaver-Burk/Dixon plot analysis.
The target in test [5] is Urease (Canavalia ensiformis) (UniProt P07374). Described as §2.
Test [6] has as its target T1, Urease. Kind of test: (§3) Non-competitive inhibition of jack bean urease using urea as substrate assessed as ammonia production after 15 mins by Lineweaver-Burk/Dixon plot analysis.
The target of test [7] is Urease (Canavalia ensiformis) (UniProt P07374). Described as §3.

Urease (Canavalia ensiformis), sequence (P07374 whole entry, looked up): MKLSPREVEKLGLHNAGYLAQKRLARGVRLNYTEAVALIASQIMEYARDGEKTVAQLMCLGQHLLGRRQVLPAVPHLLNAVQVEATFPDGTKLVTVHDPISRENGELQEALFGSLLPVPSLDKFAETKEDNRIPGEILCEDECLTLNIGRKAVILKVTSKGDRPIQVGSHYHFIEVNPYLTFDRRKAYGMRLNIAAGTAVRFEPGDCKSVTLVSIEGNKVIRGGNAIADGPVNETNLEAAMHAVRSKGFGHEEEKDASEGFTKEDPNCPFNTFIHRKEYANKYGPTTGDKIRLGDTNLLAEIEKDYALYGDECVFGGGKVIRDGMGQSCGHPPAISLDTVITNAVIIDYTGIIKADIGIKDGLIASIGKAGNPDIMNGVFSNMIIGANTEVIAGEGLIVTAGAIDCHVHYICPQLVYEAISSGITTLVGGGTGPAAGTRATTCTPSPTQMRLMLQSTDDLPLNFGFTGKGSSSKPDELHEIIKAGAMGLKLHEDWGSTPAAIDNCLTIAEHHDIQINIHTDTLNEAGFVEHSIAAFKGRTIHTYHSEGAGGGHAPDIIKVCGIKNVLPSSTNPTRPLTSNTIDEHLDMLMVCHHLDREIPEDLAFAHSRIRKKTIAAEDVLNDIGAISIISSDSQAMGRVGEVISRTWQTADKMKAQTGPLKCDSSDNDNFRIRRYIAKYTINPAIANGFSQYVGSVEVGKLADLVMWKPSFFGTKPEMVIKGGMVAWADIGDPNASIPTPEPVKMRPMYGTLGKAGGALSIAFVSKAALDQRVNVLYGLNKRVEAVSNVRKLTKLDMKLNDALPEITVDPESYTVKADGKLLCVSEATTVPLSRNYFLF
T1 sequence (P07374 whole entry): as the sequence (P07374 whole entry, looked up) above

Regarding `Fc1ccc(NC(=S)Nc2ccccc2)c(F)c1`, the IC50 on Urease [1] (read-out: IC50) amounted to 24.3 µM.
Still for that read-out and setting: the same measure for `Cc1nc(NC(=S)Nc2ccccc2)ccc1Br`: 82.7 µM; for `S=C(NCc1ccncc1)Nc1cccc(Cl)c1`: 22.7 µM.
Still for that read-out and setting: under `Cc1cccnc1NC(=S)Nc1ccccc1` stands 25.3 µM.
On to `S=C(Nc1ccccc1)Nc1cccnc1`, for which, on Urease [1] (read-out: IC50), the IC50 came to 8.43 µM. Also, at Urease [2], the Ki turned out to be 8.6 µM. For the same molecule, the inhibition entry in test [3] is “Dose-dependent effect”.
Turning to `S=C(Nc1ccccc1)Nc1ccncc1`, at Urease [1] (read-out: IC50), the IC50 was found to be 43.9 µM.
The same measure, in the same setting: under `S=C(Nc1ccccc1)Nc1ccccn1` stands 23.4 µM; under `Cc1ccc(NC(=S)Nc2cccc(Cl)c2)c(C)c1`, 24.1 µM.
As for `Fc1ccc(NC(=S)Nc2cccc(Cl)c2)cc1`, the half-maximal inhibitory concentration (IC50) at Urease [1] (read-out: IC50) came out at 19.1 µM. For the same molecule, the Ki on Urease [4] turned out to be 16.8 µM.
`S=C(Nc1ccccc1)Nc1cccnc1Cl`: the concentration for half-maximal inhibition (IC50) entry at Urease [1] is recorded as “Not Active”.
On to `Cc1ccccc1NC(=S)Nc1cccc(Cl)c1`, for which the IC50 on Urease [1] (read-out: IC50) was 34.4 µM.
Still for that read-out and setting: the same measure for `S=C(Nc1cccc(Cl)c1)Nc1c(Cl)cccc1Cl`: 41 µM.
As to `S=C(NCc1ccncc1)Nc1ccccc1`, at Urease [1] (read-out: IC50), the IC50 was determined as 32.6 µM.
On to `S=C(Nc1ccccc1)Nc1ncc(Cl)cc1Cl`, for which the half-inhibitory concentration (IC50) on Urease [1] (read-out: IC50) was determined as 37 µM.
The same measure, in the same setting: under `S=C(Nc1cccc(Cl)c1)Nc1ccc(Cl)cc1Cl` stands 42.2 µM.
Consider `Cc1ccc(C)c(NC(=S)Nc2cccc(Cl)c2)c1`, for which the IC50 at Urease [1] (read-out: IC50) turned out to be 20.9 µM. At Urease [4], the Ki was 19.3 µM. For the same molecule, the inhibition result in test [5] was “Dose-dependent effect”.
Consider `Cc1ccc(NC(=S)Nc2cccc(Cl)c2)cc1`, for which, on Urease [1] (read-out: IC50), the IC50 was determined as 18.6 µM. Further, at Urease [6], the Ki turned out to be 12.1 µM. In addition, the inhibition result in test [7] was “Dose-dependent effect”.
Turning to `COc1cccc(NC(=S)Nc2cccc(Cl)c2)c1`, the IC50 at Urease [1] (read-out: IC50) was 24.5 µM.
Take `S=C(NCc1cccnc1)Nc1cccc(Cl)c1`: the IC50 on Urease [1] (read-out: IC50) was 23 µM.
For the molecule `S=C(Nc1cccc(Cl)c1)Nc1cccnc1Cl`, the IC50 entry on Urease [1] is given as “Not Active”.
Turning to `Fc1ccc(NC(S)=Nc2cccc(Cl)c2)cc1`, the inhibition result in test [5] was “Dose-dependent effect”.
On to `S=C(NCc1ccco1)Nc1ccccc1`, for which the IC50 on Urease [1] (read-out: IC50) turned out to be 32.4 µM.
With `Fc1ccc(NC(=S)Nc2cccc(Cl)c2)cc1F`, on Urease [1] (read-out: IC50), the IC50 is 16.3 µM.
Regarding `S=C(Nc1cccc(Cl)c1)Nc1ccc(Cl)c(Cl)c1`, on Urease [1] (read-out: IC50), the IC50 is 11 µM. Further, on Urease [2], the Ki was determined as 11.7 µM. Further, in test [3], the inhibition result was “Dose-dependent effect”.
For `NC(N)=S` [THIOUREA], the Ki on Urease [2] worked out at 20 µM.
On to `S=C(Nc1cccc(Cl)c1)Nc1cccc(Cl)c1Cl`, for which the IC50 on Urease [1] (read-out: IC50) was 27.1 µM.
For `Cc1cccnc1NC(=S)Nc1cccc(Cl)c1`, at Urease [1] (read-out: IC50), the IC50 came out at 15.9 µM.
Turning to `S=C(Nc1cccc(Cl)c1)Nc1ccccc1Cl`, the IC50 at Urease [1] (read-out: IC50) came to 22.2 µM.
For `S=C(Nc1ccccc1)Nc1cccc(Br)c1`, the IC50 at Urease [1] (read-out: IC50) was 18.3 µM. Besides, on Urease [4], the Ki stood at 15.6 µM. Moreover, the inhibition result in test [5] is “Dose-dependent effect”.
Take `S=C(Nc1cccnc1)Nc1cccc(Cl)c1`: the IC50 on Urease [1] (read-out: IC50) was 24.5 µM.
On the same count and under the same terms, under `Cc1cccc(C)c1NC(=S)Nc1cccc(Cl)c1` stands 27.4 µM.
For `S=C(Nc1cccc(Cl)c1)Nc1cccc(Cl)c1`, the IC50 at Urease [1] (read-out: IC50) came to 20 µM. Also, on Urease [4], the Ki came to 18.1 µM. Besides, the inhibition result in test [5] was “Dose-dependent effect”.
For `S=C(Nc1ccc(Cl)cc1)Nc1cccc(Cl)c1` the same measures were 20.3 µM, 18.1 µM and “Dose-dependent effect”.
Consider `S=C(NCc1cccnc1)Nc1ccccc1`, for which the IC50 at Urease [1] (read-out: IC50) was 33.5 µM.
On the same count and under the same terms, under `COc1ccc(OC)c(NC(=S)Nc2ccccc2)c1` stands 29.9 µM.
Turning to `Cc1cccc(NC(=S)Nc2cccc(Cl)c2)c1`, on Urease [1] (read-out: IC50), the IC50 came to 15 µM. For the same molecule, the Ki at Urease [4] worked out at 15.7 µM. The inhibition entry in test [5] is “Dose-dependent effect”.
For `COc1ccccc1NC(=S)Nc1cccc(Cl)c1`, the IC50 on Urease [1] (read-out: IC50) came out at 20.1 µM.
With `Cc1ccc(Cl)cc1NC(=S)Nc1cccc(Cl)c1`, the IC50 on Urease [1] (read-out: IC50) amounted to 20.1 µM. The Ki at Urease [4] is 18.5 µM. Moreover, the inhibition entry in test [5] is “Dose-dependent effect”.
For the molecule `S=C(Nc1ccccc1)Nc1ccc(Br)cc1`, on Urease [1] (read-out: IC50), the IC50 came out at 34.3 µM.
Same read-out and setting: under `COc1ccc(NC(=S)Nc2cccc(Cl)c2)cc1` stands 29.6 µM.
